“And” between values parts separate entries of the source, which are not always exact repeats. Identical values can stand only once. Toxic doses and inconclusive results are not listed.
Test system: BDF1 mice, intracerebral L1210 leukemia, survival T/C
Assay: NCI In Vivo Anticancer Drug Screen. Data for tumor model L1210 Leukemia (intracerebral) in B6D2F1 (BDF1) mice
Conditions: endpoint: mean survival time, higher = longer survival
Experimental: The antitumor activity of compounds was measured in mice bearing transplantable tumors. Survival or tumor size were measured and the results are expressed as the measurement made in the treated group (T) divided by the measurement made in the vehicle treated control group (C). The tumor model used in this assay is L1210 Leukemia (intracerebral) in B6D2F1 (BDF1) mice

[1] = dose: 13.0 mg/kg/injection, schedule: Q01DX001 (ip), vehicle: saline
[2] = dose: 30.0 mg/kg/injection, schedule: Q01DX001 (ip), vehicle: saline

For `O=NN(CCCl)C(=O)NCCCl`, the T/C (dose: 2.0 mg/kg/injection, schedule: Q01DX009 (ip), vehicle: saline) was 122 % of control, the T/C (dose: 3.0 mg/kg/injection, schedule: Q04DX003 (ip), vehicle: saline) was 151 % of control and the T/C (dose: 3.7 mg/kg/injection, schedule: Q01DX001 (ip), vehicle: other) was 114 % of control. For the same compound, the T/C (dose: 4.0 mg/kg/injection, schedule: Q01DX009 (ip), vehicle: other) was 174 % of control, the T/C (dose: 4.0 mg/kg/injection, schedule: Q01DX009 (ip), vehicle: saline) was 154 % of control and the T/C (dose: 5.0 mg/kg/injection, schedule: Q01DX001 (ip), vehicle: other) was 117 % of control. For the same compound, the T/C (dose: 5.0 mg/kg/injection, schedule: Q01DX001 (ip), vehicle: saline) was 121 % of control, the T/C (dose: 6.0 mg/kg/injection, schedule: Q04DX003 (ip), vehicle: saline) was 173 % of control and the T/C (dose: 7.0 mg/kg/injection, schedule: Q01DX001 (ip), vehicle: other) was 119 % of control. For the same compound, the T/C (dose: 8.0 mg/kg/injection, schedule: Q01DX005 (ip), vehicle: saline) was 175 % of control, the T/C (dose: 8.0 mg/kg/injection, schedule: Q01DX009 (ip), vehicle: other) was 225 % of control and the T/C (dose: 8.0 mg/kg/injection, schedule: Q01DX009 (ip), vehicle: saline) was 197 % of control. The T/C (dose: 8.4 mg/kg/injection, schedule: Q01DX001 (ip), vehicle: saline) was 117 % of control and 122 % of control, the T/C (dose: 9.75 mg/kg/injection, schedule: Q01DX001 (ip), vehicle: saline) was 150 % of control and 153 % of control and 173 % of control and the T/C (dose: 10.0 mg/kg/injection, schedule: Q01DX001 (oral), vehicle: saline) was 120 % of control. The T/C (dose: 11.0 mg/kg/injection, schedule: Q04DX003 (ip), vehicle: saline + alcohol) was 203 % of control, the T/C (dose: 12.0 mg/kg/injection, schedule: Q04DX003 (ip), vehicle: saline) was 250 % of control and the T/C [1] was 219 % of control and 284 % of control. The T/C (dose: 14.0 mg/kg/injection, schedule: Q01DX001 (sc), vehicle: saline) was 186 % of control, the T/C (dose: 15.0 mg/kg/injection, schedule: Q01DX001 (ip), vehicle: other) was 153 % of control and 155 % of control and the T/C (dose: 15.0 mg/kg/injection, schedule: Q01DX001 (ip), vehicle: saline) was 175 % of control. For the same compound, the T/C (dose: 16.0 mg/kg/injection, schedule: Q01DX009 (ip), vehicle: other) was 123 % of control, the T/C (dose: 16.0 mg/kg/injection, schedule: Q01DX009 (ip), vehicle: saline) was 103 % of control and the T/C (dose: 19.5 mg/kg/injection, schedule: Q01DX001 (ip), vehicle: saline) was 197 % of control and 202 % of control and 226 % of control. For the same compound, the T/C (dose: 19.7 mg/kg/injection, schedule: Q01DX001 (oral), vehicle: saline) was 217 % of control and 250 % of control (2×), the T/C (dose: 20.0 mg/kg/injection, schedule: Q01DX001 (ip), vehicle: other) was 174 % of control and the T/C (dose: 20.0 mg/kg/injection, schedule: Q01DX001 (oral), vehicle: saline) was 159 % of control and 172 % of control. For the same compound, the T/C (dose: 22.0 mg/kg/injection, schedule: Q04DX003 (ip), vehicle: saline + alcohol) was 276 % of control, the T/C (dose: 23.0 mg/kg/injection, schedule: Q01DX001 (sc), vehicle: saline) was 228 % of control and the T/C (dose: 24.0 mg/kg/injection, schedule: Q01DX001 (ip), vehicle: saline) was 236 % of control. The T/C (dose: 25.0 mg/kg/injection, schedule: Q01DX001 (ip), vehicle: saline) was 263 % of control and 357 % of control, the T/C (dose: 25.0 mg/kg/injection, schedule: Q01DX001 (oral), vehicle: saline) was 261 % of control and the T/C (dose: 29.0 mg/kg/injection, schedule: Q01DX001 (ip), vehicle: saline) was 266 % of control and 297 % of control. The T/C [2] was 225 % of control and 440 % of control, the T/C (dose: 31.0 mg/kg/injection, schedule: Q01DX001 (ip), vehicle: other) was 246 % of control and 269 % of control and the T/C (dose: 39.0 mg/kg/injection, schedule: Q01DX001 (sc), vehicle: saline) was 241 % of control. For the same compound, the T/C (dose: 39.5 mg/kg/injection, schedule: Q01DX001 (oral), vehicle: saline) was 269 % of control and 387 % of control and 405 % of control, the T/C (dose: 40.0 mg/kg/injection, schedule: Q01DX001 (ip), vehicle: other) was 333 % of control and the T/C (dose: 44.0 mg/kg/injection, schedule: Q04DX003 (ip), vehicle: saline + alcohol) was 87 % of control. The T/C (dose: 48.0 mg/kg/injection, schedule: Q01DX001 (ip), vehicle: saline) was 296 % of control, the T/C (dose: 50.0 mg/kg/injection, schedule: Q01DX001 (ip), vehicle: saline) was 150 % of control and the T/C (dose: 50.0 mg/kg/injection, schedule: Q01DX001 (oral), vehicle: saline) was 238 % of control. For the same compound, the T/C (dose: 60.0 mg/kg/injection, schedule: Q01DX001 (ip), vehicle: saline) was 112 % of control, the T/C (dose: 62.0 mg/kg/injection, schedule: Q01DX001 (ip), vehicle: other) was 117 % of control and the T/C (dose: 65.0 mg/kg/injection, schedule: Q01DX001 (sc), vehicle: saline) was 162 % of control. The T/C (dose: 79.0 mg/kg/injection, schedule: Q01DX001 (oral), vehicle: saline) was 172 % of control and 175 % of control.
For `CCOC(=O)C(CC(C)C)NC(=O)C(Cc1ccc(N(CCCl)CCCl)cc1)NC(C)=O` (stereo not given), the T/C (dose: 2.0 mg/kg/injection, schedule: Q01DX009 (ip), vehicle: DMSO) was 90 % of control and the T/C (dose: 4.0 mg/kg/injection, schedule: Q01DX009 (ip), vehicle: DMSO) was 92 % of control.
With `CN(Cc1cnc2nc(N)nc(N)c2n1)c1c(Cl)cc(C(=O)NC(CCC(=O)O)C(=O)O)cc1Cl` (stereo not given) the T/C (dose: 285.0 mg/kg/injection, schedule: Q01DX001 (ip), vehicle: carboxymethylcellulose (CMC)) was 91 % of control, the T/C (dose: 434.0 mg/kg/injection, schedule: Q01DX001 (ip), vehicle: carboxymethylcellulose (CMC)) was 90 % of control and the T/C (dose: 647.0 mg/kg/injection, schedule: Q01DX001 (ip), vehicle: carboxymethylcellulose (CMC)) was 95 % of control.
For `O=CC(NC(=O)N(CCCl)N=O)C(O)C(O)C(O)CO` (stereo not given), the T/C (dose: 4.0 mg/kg/injection, schedule: Q01DX001 (ip), vehicle: carboxymethylcellulose (CMC)) was 111 % of control, the T/C (dose: 6.0 mg/kg/injection, schedule: Q01DX001 (ip), vehicle: carboxymethylcellulose (CMC)) was 111 % of control and the T/C (dose: 9.0 mg/kg/injection, schedule: Q01DX001 (ip), vehicle: carboxymethylcellulose (CMC)) was 112 % of control. The T/C (dose: 9.0 mg/kg/injection, schedule: Q01DX001 (ip), vehicle: saline) was 110 % of control, the T/C (dose: 13.0 mg/kg/injection, schedule: Q01DX001 (ip), vehicle: carboxymethylcellulose (CMC)) was 123 % of control and the T/C [1] was 109 % of control. For the same compound, the T/C (dose: 20.0 mg/kg/injection, schedule: Q01DX001 (ip), vehicle: carboxymethylcellulose (CMC)) was 119 % of control, the T/C (dose: 20.0 mg/kg/injection, schedule: Q01DX001 (ip), vehicle: saline) was 112 % of control and the T/C (dose: 30.0 mg/kg/injection, schedule: Q01DX001 (ip), vehicle: carboxymethylcellulose (CMC)) was 119 % of control. The T/C [2] was 117 % of control, the T/C (dose: 45.0 mg/kg/injection, schedule: Q01DX001 (ip), vehicle: carboxymethylcellulose (CMC)) was 111 % of control and the T/C (dose: 45.0 mg/kg/injection, schedule: Q01DX001 (ip), vehicle: saline) was 106 % of control.
With `O=c1[nH]c(=O)n(C2CC(O)C(CO)O2)cc1F` (stereo not given) the T/C (dose: 86.0 mg/kg/injection, schedule: Q01DX015 (ip), vehicle: saline) was 160 % of control, the T/C (dose: 239.0 mg/kg/injection, schedule: Q01DX001 (ip), vehicle: saline) was 109 % of control and the T/C (dose: 364.0 mg/kg/injection, schedule: Q01DX001 (ip), vehicle: saline) was 104 % of control. The T/C (dose: 543.0 mg/kg/injection, schedule: Q01DX001 (ip), vehicle: saline) was 117 % of control.
`C[C@]12C=CC(=O)C=C1CC[C@@H]1[C@@H]2C(=O)C[C@@]2(C)[C@H]1CC[C@]2(O)C(=O)CO` was tested, and the T/C (dose: 100.0 mg/kg/injection, schedule: Q01DX Z (sc), vehicle: steriod suspending solution) was 97 % of control, the T/C (dose: 120.0 mg/kg/injection, schedule: Q01DX001 (sc), vehicle: steriod suspending solution) was 102 % of control and the T/C (dose: 180.0 mg/kg/injection, schedule: Q01DX001 (sc), vehicle: steriod suspending solution) was 103 % of control. For the same compound, the T/C (dose: 200.0 mg/kg/injection, schedule: Q01DX Z (sc), vehicle: steriod suspending solution) was 109 % of control, the T/C (dose: 240.0 mg/kg/injection, schedule: Q01DX001 (sc), vehicle: steriod suspending solution) was 103 % of control and the T/C (dose: 250.0 mg/kg/injection, schedule: Q01DX Z (sc), vehicle: steriod suspending solution) was 112 % of control. The T/C (dose: 375.0 mg/kg/injection, schedule: Q01DX Z (sc), vehicle: steriod suspending solution) was 102 % of control, the T/C (dose: 500.0 mg/kg/injection, schedule: Q01DX Z (sc), vehicle: steriod suspending solution) was 97 % of control and the T/C (dose: 750.0 mg/kg/injection, schedule: Q01DX Z (sc), vehicle: steriod suspending solution) was 112 % of control.
With `O=NN(CCCl)C(=O)N[C@H]1CCCC[C@H]1O` the T/C (dose: 18.0 mg/kg/injection, schedule: Q01DX001 (ip), vehicle: saline with Tween-80) was 220 % of control, the T/C (dose: 26.0 mg/kg/injection, schedule: Q01DX001 (ip), vehicle: saline with Tween-80) was 408 % of control and the T/C (dose: 40.0 mg/kg/injection, schedule: Q01DX001 (ip), vehicle: saline with Tween-80) was 352 % of control. The T/C (dose: 60.0 mg/kg/injection, schedule: Q01DX001 (ip), vehicle: saline with Tween-80) was 193 % of control.

— PubChem BioAssay AID252 (DTP/NCI, 2004)
